Data from patent publication US20200063104A1, “EXPANSION OF HPSC-DERIVED GRANULOCYTIC AND LYMPHOID PROGENITORS WITH UM171” (Wisconsin Alumni Research Foundation, priority 2018, published 2020).

Assays:
[1] = system: hPSCs (NK cell production); conditions: 28-day period, prior studies; cited from earlier work
[2] = system: hPSC-derived HPs (NK cell production); assay: NK cell differentiation of hPSC-derived HPs on OP9-DLL4; assay type: cell-based, human
Description: To assess the effect of UM171 on NK cell differentiation, we collected HPs from hPSC cultures on day 9 of differentiation, and cultured them on OP9-DLL4, with or without UM171, as shown in FIG. 5A. After 14 days, these cultures generated CD56^+ NK cells that expressed CD94 and CD16, markers of mature NK cells. Although UM171 had no effect on the percentages of NK cells or their phenotype, the absolute numbers of NK cells generated with UM171 were approximately 10-fold higher as compare to DMSO controls (FIG. 5B-D). […] Similar findings were obtained with HPs generated from H9 hESCs and the IISH2i-BM9 iPSC line that was derived from bone marrow mononuclear cells (FIG. 9).
NK differentiation of hematopoietic progenitor cells was performed in α-MEM (Gibco), supplemented with 20% FBS (HyClone), on mouse OP9-DLL4 expressing feeder layer, in two stages. In stage 1, hematopoietic progenitor cells were cultured for 7 days on OP9-DLL4, with 100 ng/ml FLT3L, 40 ng/ml SCF, and 5 ng/ml IL-7 (Peprotech), and 35 nM UM171 or equivalent volume DMSO. Cells were then transferred to fresh α-MEM media, supplemented with 10 ng/ml Il-2 and 5 ng/ml IL-15 (Peprotech), and with or without UM171 treatment. Media was topped up with one volume fresh media, every 3-4 days, and cultures were transferred to new OP9-DLL4 cells, every 7 days. After 14 to 21 days, cells were harvested for flow cytometry and other analyses. OP9-DLL4 were used at 75-80% confluency.

CD34+CD235+CD41a+ cells = assay: RNAseq analysis of CD34+CD235+CD41a+ cells expanded in HSC expansion conditions; assay type: cell-based, human
Protocol: To analyze changes in molecular profile induced by UM171, we isolated CD34^+CD235^+CD41a^+ cells on day 9 of differentiation, cultured them in HSC expansion conditions with UM171 or DMSO for 16 hours and 5 days, and then performed RNAseq analysis of expanded cells.
Total RNA was isolated using RNeasy Micro Kit (Qiagen) and subjected to DNase digestion, according to the manufacturer's protocol. Isolated RNAs were used for either quantitative RT-PCR or RNA sequencing. RNA purity and integrity was evaluated by capillary electrophoresis on the Bioanalyzer 2100 (Agilent Technologies, Santa Clara, Calif.). […] Final sample libraries were quantitated with the Life Technologies Qubit fluorometer and sequenced on the Illumina HiSeq 3000 (SY-401-3001). […] Following quality assessment and filtering for adapter molecules and other sequencing artifacts, the sequencing reads were aligned to transcript sequences corresponding to hg19 human genome annotation. Bowtie v 1.1.2 was used allowing two mismatches in a 25 bp seed and excluding reads with more than 200 alignments^25. RSEM v 1.3.0 was used to estimate isoform or gene relative expression levels in units of “transcripts per million” (tpm), as well as posterior mean estimate of the “expected counts” (the non-normalized absolute number of reads assigned by RSEM to each isoform/gene)^26,27. […]

[3] = system: CD34+CD43+ hPSC-derived HPs; assay: Expansion of hPSC-derived hematopoietic progenitors in HSC expansion conditions (flow cytometry); assay type: cell-based, human
Description: To understand the effect of UM171 on hPSC-derived HPs and provide mechanistic insight on its action, we performed hematopoietic differentiation of H1 hESCs in defined feeder- and serum-free defined conditions for 9 days to generate HPs^10. We then cultured the cells in SFEM medium supplemented with cytokines that support expansion of HSCs (TPO, SCF, FLT3L, IL3 and IL6), and with UM171 or DMSO (negative control) (FIG. 1A). […] Overall, cultures with UM171 generated up to 10-fold higher numbers of CD34^+CD43^+CD45^+ HPs, as compared to control cultures.
Hematopoietic progenitors from Day 9 differentiation cultures were expanded in StemSpan™-SFEM (Stem Cell Technologies), supplemented with 35 nM UM171 (Xcess Biosciences), or equivalent volume of DMSO, and 100 ng/ml TPO, 100 ng/ml SCF, 100 ng/ml FLT3L, 50 ng/ml IL-6, and 10 ng/ml IL-3. Expansion cultures were supplemented with fresh StemSpan™-SFEM (Stem Cell Technologies) media with the same cytokine concentrations, every 3 days. Cells were plated at up to 150,000 cells/ml. At day 5 or indicated time points, cells were collected for flow cytometric (FCM) analysis and CFU assay. […]

[4] = system: hPSC-derived HPs (CFC potential); assay: Methylcellulose colony forming assay of expanded HPs; assay type: cell-based, human
Protocol: Hematopoietic colony forming potential was assessed by combining cells of interest with 1.5 ml serum containing H4436 Methocult (Stem Cell Technologies). Cell suspensions were then transferred to 35-mm dishes and cultured for 12-14 days at 37° C. Hematopoietic colonies were scored according to cellular morphology, and CFC numbers were normalized to the number of cells plated (CFCs/10^4) cells.

[5] = system: CD34+CD43+ hPSC-derived HPs; assay: Proliferation and cell cycle (BrdU assay, Ki67 staining) in HP expansion cultures; assay type: cell-based, human
Protocol: (§1) For apoptosis detection, cells were stained with CD34-FITC, CD45-BV421, and CD43-APC (BD Pharmingen), along with PI and Annexin V-PE (BD Pharmingen), and analyzed by flow cytometry. To assess proliferation of hematopoietic progenitors, using cell proliferation antigen Ki-67, cells were incubated with CD34-PE, CD43-BV421 (BD Pharmingen), and Ghost violet 540 cell viability dye (TONBO Biosciences). Cells were then fixed and permeabilized with 70% ethanol, and stained with Ki67-APC (Miltenyi Biotech), according to the manufacturer protocol, and analyzed by flow cytometry. Cell cycle analysis of total hematopoietic progenitors was carried out using the FITC BrdU flow kit (BD Pharmingen), following manufacturer recommendations. On day four of HP expansion in HSC or lymphoid expansion conditions and on day 3 of NK differentiation cells were labelled with BrdU. After 24 hours, samples were collected and incubated with CD34-PE, CD43-BV421 (BD Pharmingen), and CD45-APC (Miltenyi Biotech); CD34-PE or 34 PerCP, CD45-BV421 (BD Pharmingen), and CD41a-APC (Miltenyi Biotech); CD45-BV421, CD7-PE, and CD34-APC (BD Pharmingen); or CD45-BV421 and CD56-APC (BD Pharmingen), and then counterstained with Ghost violet 540 cell viability dye (TONBO Biosciences). This was followed by fixation, permeabilization, and a 1 hour incubation with DNase at 37° C., to expose incorporated BrdU. After washing, cells were stained first with anti BrdU-FITC, followed by 7AAD, and flow cytometry was performed. CD34^+CD43^+CD45^+ and CD34^+CD43^+CD45^+CD41a^+ hematopoietic progenitors, CD34^+CD45^+CD7^+, lymphoid progenitors, or CD45^+CD56^+ NK cells were then analyzed for cell cycle kinetics and proliferation, through BrdU incorporation.

[6] = system: CD34+CD43+ hPSC-derived HPs; assay: Apoptosis by annexin V assay in HP expansion cultures; assay type: cell-based, human; conditions: 5 days of expansion, UM171 vs DMSO
Protocol: as §1, with “After 24 hours, samples were collected and incubated with CD34-PE, CD43-BV421 (BD Pharmingen), and CD45-APC (Miltenyi Biotech); CD34-PE or 34 PerCP, CD45-BV421 (BD Pharmingen), and CD41a-APC (Miltenyi Biotech); CD45-BV421, CD7-PE, and CD34-APC (BD Pharmingen); or CD45-BV421 and CD56-APC (BD Pharmingen), and then counterstained with Ghost violet 540 cell viability dye (TONBO Biosciences). This was followed by fixation, permeabilization, and a 1 hour incubation with DNase at 37° C., to expose incorporated BrdU. After washing, cells were stained first with anti BrdU-FITC, followed by 7AAD, and flow cytometry was performed.” left out

[7] = system: CD34+CD45+CD7+ progenitors; assay: BrdU cell cycle analysis in NK differentiation cultures; assay type: cell-based, human; conditions: lymphoid stage of NK differentiation
Protocol: as §1, with “After 24 hours, samples were collected and incubated with CD34-PE, CD43-BV421 (BD Pharmingen), and CD45-APC (Miltenyi Biotech); CD34-PE or 34 PerCP, CD45-BV421 (BD Pharmingen), and CD41a-APC (Miltenyi Biotech); CD45-BV421, CD7-PE, and CD34-APC (BD Pharmingen); or CD45-BV421 and CD56-APC (BD Pharmingen), and then counterstained with Ghost violet 540 cell viability dye (TONBO Biosciences). This was followed by fixation, permeabilization, and a 1 hour incubation with DNase at 37° C., to expose incorporated BrdU. After washing, cells were stained first with anti BrdU-FITC, followed by 7AAD, and flow cytometry was performed.” left out

[8] = 5 days of expansion, UM171 vs DMSO

SMILES | fold increase in NK cell output [1] | fold higher absolute numbers of NK cells as compared to DMSO controls ([2]; 35 nM UM171, after 14 days on OP9-DLL4) | stage of NK differentiation at which addition has an effect ([2]; added during first 7 or final 7-14 days) | percentages of NK cells or their phenotype ([2]; after 14 days on OP9-DLL4, UM171 vs DMSO) | fold increase in NK cell output ([2]; lymphoid cultures on OP9-DLL4 with SCF, FLT3L, IL7, 14-day period) | fold increase in NK and T cell output ([2]; lymphoid cultures on OP9-DLL4 with SCF, Flt-3, IL7) | expression of aryl-hydrocarbon receptor target genes (CD34+CD235+CD41a+ cells; UM171 vs DMSO, 16 hours and 5 days) | AHR and AHRR expression (CD34+CD235+CD41a+ cells; hPSC-derived HPs) | fold higher numbers of CD34+CD43+CD45+ HPs as compared to control cultures ([3]; 35 nM UM171 vs DMSO, H1 hESC-derived day 9 HPs, SFEM with TPO, SCF, FLT3L, IL3, IL6) | CD201 expression in CD34+CD45+ HPs ([3]; HSC expansion conditions, 35 nM UM171) | effect on CFC potential of expanded cells ([4]; HPs expanded 5 and 7 days with UM171 vs DMSO) | share of G-CFCs in the CD34+CD41a(lo)CD45+ progenitor population ([4]; UM171 cultures with HSC expansion cytokines) | cell cycle distribution of HPs [5, 8] | proliferation of HPs by BrdU assay and Ki67 staining [5, 8] | proportions of CD41a(lo) and CD41a(hi) cells within BrdU+ fraction ([5]; UM171 expansion cultures) | fold higher frequency of proliferating CD41a(lo) HPs as compared to DMSO control ([5]; within BrdU+ fraction, CD34+CD45+ gated, 5 days of expansion) | number of apoptotic, especially late apoptotic (AnnexinV+PI+) cells [6] | number of viable cells [6] | proportion of proliferating CD34+CD45+CD7+ progenitors [7]
CC(C)n1cnc2c(NCCc3ccc(O)cc3)nc(-c3csc4ccccc34)nc21 [SR1] | up to 2 fold | – | – | – | – | – | – | – | – | – | – | – | – | – | – | – | – | – | –
Cn1nnc(-c2ccc3c(c2)[nH]c2nc(Cc4ccccc4)nc(NC4CCC(N)CC4)c23)n1 (stereo not shown) [UM171] | – | approximately 10 fold | only when added during the first 7 days | no effect | up to 10 fold | up to 10 fold | did not affect | minimal effect | up to 10 fold | induction of CD201 expression | most dramatic effect on G-CFCs | > 50% | predominantly increases the proportion of HPs in the early S phase | increased proliferation | approximately equal proportions | up to 7 fold | decreased number of apoptotic | increased number of viable cells | increases the proportion of proliferating
